Source: ChEMBL document CHEMBL1201862, “PubChem BioAssay data set” (2004)
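These data come from cells grown in 96-well plates and exposed to compound for 48 hours at five concentrations. At the GI50, growth is halved.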 Calls of active or inactive are those of the source. Cut-off read from the data, not from the text of the source: active = GI50 up to about 1.1 µM and inactive = higher.

How the values were obtained:
Assay in all cases: DTP human tumour cell line panel, 48 h
786-0 = system: 786-0
A498 = system: A498
A549 = system: A549
ACHN = system: ACHN
BT-549 = system: BT-549
CAKI-1 = system: CAKI-1
CCRF-CEM = system: CCRF-CEM
COLO 205 = system: COLO 205
DU-145 = system: DU-145
EKVX = system: EKVX
HCC 2998 = system: HCC 2998
HCT-116 = system: HCT-116
HCT-15 = system: HCT-15
HL-60 = system: HL-60
HOP-62 = system: HOP-62
HOP-92 = system: HOP-92
HT-29 = system: HT-29
IGROV-1 = system: IGROV-1
K562 = system: K562
KM12 = system: KM12
LOX IMVI = system: LOX IMVI
M14 = system: M14
MCF7 = system: MCF7
MDA-MB-231 = system: MDA-MB-231
MDA-MB-435 = system: MDA-MB-435
MDA-N = system: MDA-N
MOLT-4 = system: MOLT-4
Malme-3M = system: Malme-3M
NCI-H226 = system: NCI-H226
NCI-H23 = system: NCI-H23
NCI-H460 = system: NCI-H460
NCI-H522 = system: NCI-H522
NCI/ADR-RES = system: NCI/ADR-RES
OVCAR-3 = system: OVCAR-3
OVCAR-4 = system: OVCAR-4
OVCAR-5 = system: OVCAR-5
OVCAR-8 = system: OVCAR-8
PC-3 = system: PC-3
RPMI-8226 = system: RPMI-8226
RXF 393 = system: RXF 393
SF-268 = system: SF-268
SF-295 = system: SF-295
SF-539 = system: SF-539
SK-MEL-28 = system: SK-MEL-28
SK-MEL-2 = system: SK-MEL-2
SK-MEL-5 = system: SK-MEL-5
SK-OV-3 = system: SK-OV-3
SN12C = system: SN12C
SNB-19 = system: SNB-19
SNB-75 = system: SNB-75
SW-620 = system: SW-620
TK-10 = system: TK-10
U-251 = system: U-251
UACC-257 = system: UACC-257
UACC-62 = system: UACC-62
UO-31 = system: UO-31
SR = system: SR
T47D = system: T47D

## COc1ccccc1C(=O)c1c(N2CCCCC2)c(=O)c1=O
786-0
  GI50: > 100 µM (inactive)
A498
  GI50: > 100 µM (inactive)
A549
  GI50: > 100 µM (inactive)
ACHN
  GI50: > 100 µM (inactive)
BT-549
  GI50: > 100 µM (inactive)
CAKI-1
  GI50: > 100 µM (inactive)
CCRF-CEM
  GI50: > 100 µM (inactive)
COLO 205
  GI50: > 100 µM (inactive)
DU-145
  GI50: > 100 µM (inactive)
EKVX
  GI50: > 100 µM (inactive)
HCC 2998
  GI50: > 100 µM (inactive)
HCT-116
  GI50: > 100 µM (inactive)
HCT-15
  GI50: > 100 µM
HL-60
  GI50: > 100 µM (inactive)
HOP-62
  GI50: > 100 µM (inactive)
HOP-92
  GI50: > 100 µM (inactive)
HT-29
  GI50: > 100 µM (inactive)
IGROV-1
  GI50: > 100 µM (inactive)
K562
  GI50: > 100 µM (inactive)
KM12
  GI50: 78.7 µM (inactive)
LOX IMVI
  GI50: > 100 µM (inactive)
M14
  GI50: > 100 µM (inactive)
MCF7
  GI50: > 100 µM (inactive)
MDA-MB-231
  GI50: > 100 µM (inactive)
MDA-MB-435
  GI50: > 100 µM (inactive)
MDA-N
  GI50: > 100 µM (inactive)
MOLT-4
  GI50: > 100 µM (inactive)
Malme-3M
  GI50: > 100 µM (inactive)
NCI-H226
  GI50: > 100 µM (inactive)
NCI-H23
  GI50: > 100 µM (inactive)
NCI-H460
  GI50: > 100 µM (inactive)
NCI-H522
  GI50: 59.3 µM (inactive)
NCI/ADR-RES
  GI50: > 100 µM (inactive)
OVCAR-3
  GI50: > 100 µM (inactive)
OVCAR-4
  GI50: > 100 µM (inactive)
OVCAR-5
  GI50: > 100 µM (inactive)
OVCAR-8
  GI50: > 100 µM (inactive)
PC-3
  GI50: > 100 µM (inactive)
RPMI-8226
  GI50: 92.7 µM (inactive)
RXF 393
  GI50: > 100 µM (inactive)
SF-268
  GI50: > 100 µM (inactive)
SF-295
  GI50: > 100 µM (inactive)
SF-539
  GI50: > 100 µM (inactive)
SK-MEL-28
  GI50: > 100 µM (inactive)
SK-MEL-2
  GI50: > 100 µM (inactive)
SK-MEL-5
  GI50: > 100 µM (inactive)
SK-OV-3
  GI50: > 100 µM (inactive)
SN12C
  GI50: > 100 µM (inactive)
SNB-19
  GI50: > 100 µM (inactive)
SNB-75
  GI50: > 100 µM (inactive)
SW-620
  GI50: > 100 µM (inactive)
TK-10
  GI50: > 100 µM (inactive)
U-251
  GI50: > 100 µM (inactive)
UACC-257
  GI50: > 100 µM (inactive)
UACC-62
  GI50: > 100 µM (inactive)
UO-31
  GI50: > 100 µM (inactive)

## C/C1=C\CC[C@@]2(C)O[C@@H]2C[C@@H]2[C@H](C/C(C)=C/CC1)OC(=O)C21CC1
786-0
  GI50: 74.5 µM (inactive)
A498
  GI50: > 100 µM (inactive)
A549
  GI50: > 100 µM (inactive)
ACHN
  GI50: 50.6 µM (inactive)
BT-549
  GI50: 44.9 µM (inactive)
CAKI-1
  GI50: > 100 µM (inactive)
CCRF-CEM
  GI50: 20.6 µM (inactive)
COLO 205
  GI50: > 100 µM (inactive)
DU-145
  GI50: 59.7 µM (inactive)
EKVX
  GI50: > 100 µM (inactive)
HCC 2998
  GI50: > 100 µM (inactive)
HCT-116
  GI50: 35 µM (inactive)
HCT-15
  GI50: 27.7 µM
HL-60
  GI50: 24.2 µM (inactive)
HOP-62
  GI50: > 100 µM (inactive)
HT-29
  GI50: > 100 µM (inactive)
IGROV-1
  GI50: 23.3 µM (inactive)
K562
  GI50: 21 µM (inactive)
KM12
  GI50: > 100 µM (inactive)
M14
  GI50: > 100 µM (inactive)
MCF7
  GI50: 53.5 µM (inactive)
MDA-MB-231
  GI50: > 100 µM (inactive)
MDA-MB-435
  GI50: 41.5 µM (inactive)
MDA-N
  GI50: 91.4 µM (inactive)
MOLT-4
  GI50: 21.7 µM (inactive)
Malme-3M
  GI50: > 100 µM (inactive)
NCI-H460
  GI50: 56.8 µM (inactive)
NCI/ADR-RES
  GI50: > 100 µM (inactive)
OVCAR-3
  GI50: > 100 µM (inactive)
OVCAR-5
  GI50: > 100 µM (inactive)
OVCAR-8
  GI50: > 100 µM (inactive)
PC-3
  GI50: > 100 µM (inactive)
RPMI-8226
  GI50: 12.1 µM (inactive)
RXF 393
  GI50: > 100 µM (inactive)
SF-268
  GI50: > 100 µM (inactive)
SF-295
  GI50: > 100 µM (inactive)
SF-539
  GI50: > 100 µM (inactive)
SK-MEL-28
  GI50: > 100 µM (inactive)
SK-MEL-2
  GI50: > 100 µM (inactive)
SK-MEL-5
  GI50: 93.5 µM (inactive)
SK-OV-3
  GI50: > 100 µM (inactive)
SN12C
  GI50: 60.3 µM (inactive)
SNB-19
  GI50: > 100 µM (inactive)
SNB-75
  GI50: > 100 µM (inactive)
SR
  GI50: 12.7 µM (inactive)
SW-620
  GI50: 60.7 µM (inactive)
T47D
  GI50: > 100 µM (inactive)
TK-10
  GI50: > 100 µM (inactive)
U-251
  GI50: 28.8 µM (inactive)
UACC-257
  GI50: > 100 µM (inactive)
UACC-62
  GI50: 90.8 µM (inactive)
UO-31
  GI50: 92.3 µM (inactive)

## CCN(C(=S)N[C@H](C(=O)N[C@@H](C)C(=O)OC)C(C)C)c1ccccc1
786-0
  GI50: 59.7 µM (inactive)
A549
  GI50: > 100 µM (inactive)
ACHN
  GI50: 64.4 µM (inactive)
BT-549
  GI50: > 100 µM (inactive)
CAKI-1
  GI50: > 100 µM (inactive)
CCRF-CEM
  GI50: 27.8 µM (inactive)
COLO 205
  GI50: 59.6 µM (inactive)
DU-145
  GI50: > 100 µM (inactive)
EKVX
  GI50: > 100 µM (inactive)
HCC 2998
  GI50: > 100 µM (inactive)
HCT-116
  GI50: 70.8 µM (inactive)
HCT-15
  GI50: 63.1 µM
HOP-62
  GI50: 91.6 µM (inactive)
HOP-92
  GI50: 51.4 µM (inactive)
HT-29
  GI50: 31.5 µM (inactive)
IGROV-1
  GI50: 25.8 µM (inactive)
K562
  GI50: 22.7 µM (inactive)
KM12
  GI50: > 100 µM (inactive)
LOX IMVI
  GI50: 52.6 µM (inactive)
M14
  GI50: 53.2 µM (inactive)
MCF7
  GI50: 87.3 µM (inactive)
MDA-MB-231
  GI50: > 100 µM (inactive)
MDA-MB-435
  GI50: 64 µM (inactive)
MDA-N
  GI50: 91.2 µM (inactive)
MOLT-4
  GI50: 25.4 µM (inactive)
Malme-3M
  GI50: 21.8 µM (inactive)
NCI-H226
  GI50: > 100 µM (inactive)
NCI-H23
  GI50: > 100 µM (inactive)
NCI-H460
  GI50: 33.6 µM (inactive)
NCI-H522
  GI50: 16.6 µM (inactive)
NCI/ADR-RES
  GI50: > 100 µM (inactive)
OVCAR-3
  GI50: > 100 µM (inactive)
OVCAR-4
  GI50: > 100 µM (inactive)
OVCAR-5
  GI50: > 100 µM (inactive)
OVCAR-8
  GI50: 21.8 µM (inactive)
PC-3
  GI50: 64.9 µM (inactive)
RPMI-8226
  GI50: 63.2 µM (inactive)
RXF 393
  GI50: 62.1 µM (inactive)
SF-295
  GI50: > 100 µM (inactive)
SF-539
  GI50: 28 µM (inactive)
SK-MEL-28
  GI50: > 100 µM (inactive)
SK-MEL-2
  GI50: > 100 µM (inactive)
SK-MEL-5
  GI50: 71.4 µM (inactive)
SK-OV-3
  GI50: > 100 µM (inactive)
SN12C
  GI50: 66.8 µM (inactive)
SNB-19
  GI50: > 100 µM (inactive)
SR
  GI50: 18.9 µM (inactive)
SW-620
  GI50: 59.7 µM (inactive)
T47D
  GI50: > 100 µM (inactive)
TK-10
  GI50: 88.5 µM (inactive)
U-251
  GI50: > 100 µM (inactive)
UACC-257
  GI50: 44.7 µM (inactive)
UACC-62
  GI50: 76.7 µM (inactive)
UO-31
  GI50: 60.8 µM (inactive)
